The test system of one data set is MIN6 cells. Briefly: Annexin V and propidium iodide staining for apoptosis and necrosis. It is filed as cell-based, murine. To be noted: 5 mM, 3 hrs. How it is done: A) MIN6 cells were treated for 4 hrs with 0 uM (EtOH vehicle control), 20 uM or 200 uM CMPF prior to being loaded with Annexin V and propidium iodide fluorescent dyes, and counterstained with Hoechst dye. […] B) Primary CD1 islets were dispersed and treated with vehicle control (0 CMPF, black), 20 uM CMPF (grey), or 200 uM CMPF (white) for 48 hours, then stained with Annexin V, Propidium Iodide and Hoechst dye. Quantification of double positive staining was assessed by an Arrayscan VTI HCS reader.
Next the mechanism underlying the observed impairment in GSIS following treatment with CMPF was investigated. To determine whether CMPF was inhibiting GSIS by inducing beta cell apoptosis, Annexin V and Propidium Iodide staining was performed in MIN6 cells treated with vehicle (EtOH), 20 uM or 200 uM CMPF for 4 hrs to look for apoptosis and necrosis respectively. […] MIN6 cells treated with 5 mM H2O2 for 3 hrs were used as a positive control (FIG. 4).

In another data set the test system is primary murine islets. Put plainly: Glucose- and KCl-stimulated insulin secretion in primary murine islets. It is filed as cell-based. The conditions noted are these: co-treatment with 500 μM NAC, 24 hr. Here is the method: LG=2.8 mM glucose, HG=16.7 mM glucose, KCl=16.7 mM glucose+30 mM KCl. *p<0.05.
Since beta cell failure is a major underlying cause of both GDM and T2D, the effect of increased CMPF on beta cell function was investigated both in vitro and in vivo. Using physiological concentrations of CMPF (20 uM and 200 uM, as observed in our NGT-pregnant and GDM-pregnant samples respectively (FIG. 2)), as well as a vehicle control (EtOH), its effect was studied on glucose-stimulated insulin secretion (GSIS) and insulin secretion in response to direct depolarization using the secretagogue KCl in an immortalized murine beta cell line (MIN6), as well as primary isolated human and murine islets (FIG. 3A). […] Therefore, high physiologically relevant levels of CMPF impair GSIS.

In data set [1] the test system is dispersed CD1 mouse islet cells. Put plainly: Immunofluorescent staining of FOXO1 and PDX1 localization. To be noted: treatment with NAC. The class given is cell-based. How it is done:
The cellular localization of FOXO1 and PDX1 were determined in dispersed CD1 mouse islet cells using immunofluorescence. The presence of the organic anion transporters (OATs) were determined in dispersed human islet cells also using immunofluorescence. Staining was performed as previously described (Diao et al., 2008). Images were acquired using a confocal microscope (Quorum Wave FX Spinning Disc; Perkin Elmer, Waltham M L, USA) and Volocity software (Perkin Elmer).
To determine the mechanism through which CMPF decreases insulin biosynthesis we examined its effect on these key regulators. Under normal conditions, AKT and GSK3β have reciprocal activities. Active pAKT phosphorylates and inactivates GSK3β, preventing phosphorylation of downstream targets (Humphrey et al., 2010). […] FOXO1 is normally sequestered in the cytosol due to phosphorylation by AKT (Kitamura et al., 2005). […] Altered activity of these transcription factors is further confirmed by decreased mRNA levels of key target genes including Inst, transcription factors Pdx1 and Mafa, proinsulin processing enzymes CpE, Pc1 and Pc2, and the glucose transporter Glut2 (Boucher et al., 2006; Kaneto et al. 2008) (FIG. 18a).

In the next data set the test system is mouse islets. Put plainly: ROS accumulation in isolated islets (mitoSOX red, CM-H2-DCFDA). It is filed as cell-based. The conditions noted are these: co-treatment with 500 μM NAC, 24 hr. Here is the method:
A) Proinsulin in the media of 24 hr treated islets (n=4/group). B) Mitochondrial membrane potential (MMP) following acute addition of vehicle control or 200 μM of CMPF (N=3/group). C) ROS levels in 4- and 24-hour treated mouse islets with representative images (N=10-15 islets/mouse from 4 mice/group). D) Expression of antioxidant genes Cat and (e) Ucp2 (n=4/group). F) ROS accumulation in 24 hr-treated islets treated with 500 μM NAC (n=10 islets/mouse from 4 mice/group). G) GSIS and (h) total insulin content from 24 hr-treated islets co-treated with 500 μM NAC (n=4/group). Western blots showing (i) Ser9 phosphorylation of GSK3β, (j) Ser473 phosphorylation of AKT (n=3/group). K) Immunofluorescent staining showing nuclear translocation of FOXO1 and (l) PDX1 with CMPF and NAC treatment (n=3-6). Quantification of nuclear percentage of (m) FOXO1 and (n) PDX1 based on immunofluorescent staining with CMPF and NAC treatment. O) Western blots showing protein abundance of PDX1 and FOXO1. Values are mean+/−SEM. Student's t-test (a, c-j, m-o), one-way ANOVA (b). *P<0.05, **P<0.01, ***P<0.001.
The level of superoxide and H2O2 were determined using mitoSOX red and 2′,7′-dichlorodihydro fluorescein diacetate (CM-H2-DCFDA) respectively (Molecular Probes, Invitrogen, Canada) in isolated islets treated with either vehicle control or 200 μM CMPF for 4 or 24 hours, as previously described (Lee et al. 2009). […]

A further data set deals with murine islets. Briefly: Total insulin content in murine islets. It is filed as cell-based. To be noted: co-treatment with 500 μM NAC, 24 hr. Here is the method:
Murine islets were treated for 24 hrs with vehicle control (0 CMPF), 20 uM (20 CMPF), or 200 uM (200 CMPF) CMPF, and assessed for total insulin content and mRNA expression. […] Decreased expression of insulin processing enzymes PCSK1, 2 and CpE (F), (G), (H) indicate that CMPF may also impair post-translational insulin processing. Finally, CMPF causes decreased expression of the beta cell glucose transporter GLUT2, and GCK, the rate-limiting enzyme critical for glucose metabolism (I) and (J), perhaps impairing glucose sensing and metabolism. In all cases n=4, *P<0.05.
In the absence of apoptosis and necrosis, CMPF must be impairing GSIS by causing beta cell dysfunction. First, the effect of CMPF treatment on insulin biosynthesis was investigated to determine if insulin is available to be released upon stimulation. MIN6, murine and human islets were treated with vehicle control, 20 uM and 200 uM CMPF for 4 hrs (MIN6) or 24 hrs (islets), and total insulin content measured. […] Lower total insulin content may be due to either defective insulin processing from proinsulin to mature insulin, or insufficient insulin transcription. To determine the mechanism through which CMPF is reducing total insulin content, quantitative PCR (qPCR) was performed on RNA that was isolated from murine islets treated with either vehicle control or 200 uM CMPF for 24 hrs.

For a further data set, the system named is CD1 mouse islets. Briefly: GSIS and insulin content of CMPF-treated islets with OAT inhibitors. The class given is cell-based. From the text: A) Microarray analysis of human islets showing expression of OAT transporters and beta-cell genes (n=3). Validation of OAT expression in human islets by (b) RT-PCR, (c) western blot, and (d) immunofluorescent staining with insulin (n=3-5). Human kidney samples are from the HK2 human proximal tubule cell line. GSIS from murine islets co-treated with OAT inhibitors (e) Probenecid, (f) benzylpenicillin (PCG) and (g) p-aminohippurate (PAH) (n=4/group). h) Total insulin content from murine islets co-treated with CMPF and PCG (n=4). Values mean+/−SEM. Student's t-test (a, e-h). *P<0.05, **P<0.01, ***P<0.001.
To determine if the OAT transporters are responsible for CMPF transport into beta cells, CD1 mouse islets were pre-treated 1 mM Probenecid prior to the addition of CMPF to ensure blockage of the channels and complete exclusion of CMPF from the cells. A dosage of 1 mM Probenecid was selected based on previous evidence that this concentration was sufficient to inhibit anion transport from beta cells without any observed effect on glucose-stimulated insulin secretion (Arkhammar et al. 1989). Islets were pre-treated with 1 mM Probenecid for 3 hours prior to the addition of 200 uM CMPF. After 24 hours cells were assessed by GSIS. Treatment with 200 uM CMPF alone produced a significant decrease in GSIS under both high glucose and KCl-stimulated conditions, consistent with previous findings, while treatment with 1 mM Probenecid for 27 hours had no effect on GSIS compared to vehicle controls. […] Therefore, probenecid inhibits the effect of CMPF. Similar results were obtained using the OAT3-specific inhibitor PCG. Islets were again pre-treated for 3 hours with 300 uM PCG prior to 24-hour 200 uM CMPF treatment (FIG. 14B).
To determine if OATs are responsible for CMPF transport into beta-cells, we utilized inhibitors of OAT function. Probenecid is a non-specific OAT-blocker (Miyamoto et al., 2012). Treatment of islets with 1 mM probenecid for 24 hrs rescued insulin secretion from CMPF-treated islets to control levels (FIG. 19e). To determine which OAT is primarily responsible for CMPF transport into beta-cells, we treated islets with 300 μM of benzylpenicillin (PCG), an OAT3-specific inhibitor, or 50 μM of paminohippurate (PAH), an OAT1-specific inhibitor (Deguchi et al., 2005). Consistent with previous reports that OAT3 is the dominant CMPF transporter (Deguchi et al., 2005), PCG was able to rescue insulin secretion and insulin content from CMPF-treated islets to control levels (FIG. 19f,h). However, treatment with PAH had no effect on secretion (FIG. 19g). Therefore, CMPF is transported into the beta-cell through OAT3, and blockage of this transporter prevents CMPF from impairing GSIS and insulin biosynthesis.

The target of the next data set is T1, OAT3 (Rattus norvegicus, UniProt Q9R1U7).
T1 construct: host or cells: kidney (in vivo, per the cited study)
T1 sequence (Q9R1U7 1-536): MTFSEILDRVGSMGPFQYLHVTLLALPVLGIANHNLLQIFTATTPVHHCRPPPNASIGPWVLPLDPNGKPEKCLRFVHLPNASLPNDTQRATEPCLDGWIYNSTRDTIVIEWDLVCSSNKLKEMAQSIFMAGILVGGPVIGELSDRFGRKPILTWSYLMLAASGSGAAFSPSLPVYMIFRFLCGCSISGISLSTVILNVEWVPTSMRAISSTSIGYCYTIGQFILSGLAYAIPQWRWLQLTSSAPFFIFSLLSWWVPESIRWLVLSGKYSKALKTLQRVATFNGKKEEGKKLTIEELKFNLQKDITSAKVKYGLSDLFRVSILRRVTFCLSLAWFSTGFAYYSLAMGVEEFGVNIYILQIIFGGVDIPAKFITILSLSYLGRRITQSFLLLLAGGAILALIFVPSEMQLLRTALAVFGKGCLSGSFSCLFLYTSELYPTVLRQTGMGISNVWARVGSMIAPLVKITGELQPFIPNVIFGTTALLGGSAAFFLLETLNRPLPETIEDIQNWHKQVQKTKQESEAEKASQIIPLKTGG
The conditions noted are these: concentrations of PCG that selectively inhibit OAT3; cited from earlier work.

The subject of a further data set is OAT transporter. To be noted: 5 mg/kg CMPF co-administered with 150 mg/kg probenecid; cited from earlier work.
The next data set has as its system mice. Put plainly: Probenecid IP twice daily for 3 days in mice. It is filed as in vivo.
Setting [2] is: 150 mg/kg IP twice daily for 3 days.

Description for mice: Mice were injected IP with 150 mg/kg probenecid twice daily for 3 days as previously described (Baudoux et al., 2012).

For the molecule `OO` [H2O2, reference compound], the “Annexin V and propidium iodide staining (positive control)” value in the data set on MIN6 cells is recorded as “only observed in the positive control”.
`CC(=O)N[C@@H](CS)C(=O)O` [NAC, N-Acetyl-Cysteine, reference compound]: the “insulin secretion (GSIS) in CMPF-treated islets” value with primary murine islets is recorded as “rescued”. For the same molecule, in [1], the “CMPF-induced translocation of FOXO1” value is recorded as “prevented” and the “CMPF-induced translocation of PDX1” value is reported as “prevented”. In addition, the “CMPF-induced increase in ROS production” value with mouse islets is given as “inhibited”. For the same molecule, the “insulin content in CMPF-treated islets” value in the data set with murine islets is reported as “rescued”.
As for `Nc1ccc(C(=O)NCC(=O)O)cc1` [PAH, p-aminohippurate], in the data set on CD1 mouse islets (50 μM), the “insulin secretion of CMPF-treated islets” value is given as “no effect”.
For `CC1(C)S[C@@H]2[C@H](NC(=O)Cc3ccccc3)C(=O)N2[C@H]1C(=O)O` [PCG, benzylpenicillin], the “insulin secretion, inhibitor alone” value with CD1 mouse islets (300 uM) is on record as “no significant effect”. The “effect of 200 uM CMPF on insulin secretion under high glucose” value with CD1 mouse islets (300 uM, 3 hour pre-treatment, then 24 hours with CMPF) was “inhibited the effect of CMPF”. Moreover, the “insulin content of CMPF-treated islets” value with CD1 mouse islets (300 μM, to control levels) is listed as “rescue”. Further, the CMPF secretion prevented on OAT3 is 65-75%.
In the case of `CCCN(CCC)S(=O)(=O)c1ccc(C(=O)O)cc1` [probenecid], the “plasma clearance of CMPF” value with OAT transporter is on record as “significantly reduced”. Further, in the data set with mice (setting [2]), the body weight entry is “No differences” and the fasting blood glucose entry was “No differences”. The “plasma uric acid concentrations” value in the data set with mice (150 mg/kg twice daily) was “significantly reduced”. Further, the “glucose tolerance (2 g/kg OGTT)” value in the data set on mice (on the 4th day) was “no significant difference”. In addition, the “effect of 200 uM CMPF on high-glucose and KCl-stimulated insulin secretion” value with CD1 mouse islets (1 mM, 3 hour pre-treatment, then 24 hours with CMPF) was “completely abolished the effect of CMPF”. Further, the “GSIS, inhibitor alone vs vehicle” value in the data set on CD1 mouse islets (1 mM, 27 hours) is “no effect”.

These data come from US9726659B2, “CMPF as a biomarker for diabetes and associated methods” (The Governing Council of the University of Toronto, priority 2012, dated 2017).
